From article PMC6441019, “Prospective discovery of small molecule enhancers of an E3 ligase-substrate interaction” (Nature Communications, 2019) come the findings set out here.

Assay [1] concerns the target T1, full-length Ser33/S37A β-catenin protein ubiquitylation by SCFβ-TrCP (Homo sapiens, UniProt P35222+Q9Y297, S37A).
T1 construct: 400 nM purified full-length S37A mutant β-catenin protein was ubiquitylated; 6xHis-SMT3 (N, cleaved yes); host or cells: HEK293T (β-catenin); E. coli (β-TrCP1/Skp1); E. coli or SF9 (Cul1-Rbx1)
The experiment in a line: In vitro ubiquitylation of full-length Ser33/S37A β-catenin protein. In kind it is biochemical. As to the method: Four micromolar of fluorescently-labeled β-catenin peptide (residues 17–60) were ubiquitylated in a buffer containing 25 mM Tris Cl (pH 7.5), 50 mM NaCl, 5 mM MgCl2, 2 mM ATP, and 1 mM DTT at room temperature in the presence of 62.5 μM Ubiquitin, 125 nM Ube1, 1.75 μM Cdc34A, and 100 nM neddylated SCF^β-TrCP in the presence or absence of compound (as indicated). Typically, individual reaction mixes with either Ubiquitin, Ube1 and Cdc34A or β-catenin, SCF^β-TrCP and compound were preincubated and subsequently mixed to initiate β-catenin ubiquitylation. Reactions were quenched by SDS loading buffer, resolved by SDS-PAGE and imaged for fluorescence. For full length β-catenin protein ubiquitylation 400 nM β-catenin and 400 nM SCF^β-TrCP were used instead.

The target of assay [2] is T2, Ser33/S37A β-catenin peptide binding to β-TrCP (Homo sapiens, UniProt P35222+Q9Y297, S37A).
T2 construct: titrating BODIPY-FL-labeled β-catenin peptides (residues 17-48) against 300 pM β-TrCP; 6xHis-SMT3 (N, cleaved yes); made in house; host or cells: E. coli (co-expressed with BirA)
The experiment in a line: TR-FRET peptide binding assay, unphosphorylated Ser33/S37A peptide. As to the method:
Compounds were incubated in a 20 μl reaction volume with 300 pM biotinylated β-TrCP/Skp1 preincubated with 1.2 nM terbium-coupled streptavidin (Cisbio) and BODIPY-FL labeled β-catenin peptides (see figure legends for peptide details) in a white 384-well microplate (Perkin Elmer ProxiPlate), using a PBS buffer containing 0.01% Triton X-100 and 2 mM DTT with 2% final DMSO. […] Following 1-h incubation, plates were read for TR-FRET signal after excitation at 320 nm and read at 520 and 620 nm using an EnVision plate reader (Perkin Elmer). TR-FRET signal was calculated using a 520/620 nm ratio. Binding and enhancement data were fit to a standard Hill equation (Y = Bmin + (Bmax − Bmin)(X^h)/(X^h + EC50^h)) in Prism (GraphPad). Errors are standard error of the fit.
Background: In TR-FRET formats the signal depends on donor and acceptor labels being close together.

Assay [3] addresses T3, S33E/S37A β-catenin:β-TrCP interaction (Homo sapiens, UniProt P35222+Q9Y297, S33E/S37A).
T3 construct: a ternary complex with the full-length S33E/S37A β-catenin and β-TrCP in cells; evaluated for their ability to pull down endogenous β-TrCP; expressed in transfected cells; host or cells: HEK293T (transient, FuGeneHD); β-TrCP endogenous
The experiment in a line: Lysate pulldown with recombinant β-catenin (HEK293T lysate). The following applies: anti-myc pulldown. As to the method:
Lysate pulldown with recombinant β-catenin: HEK293T cells were lysed by freeze thaw in lysis buffer (1× PBS, 2 mM DTT, 0.01% Triton X-100, proteases inhibitors (Sigma, P2714 and 11836170001), phosphatase inhibitors (Sigma, P5726 and P0044), 5 nM Calyculin A (Sigma, C5552)) at 85 µL of buffer to 1 × 10^6 cells. Lysates were clarified by centrifugation at 20,000 × g for 20 min at 4 °C and the supernatant was collected for subsequent use. Purified Myc/FLAG-tagged wild-type β-catenin protein at 2 µM was pretreated with 1 µM GSK3β (EMD Millipore, 14-306), 50 nM Axin (Enzo Life Sciences, ENZ-PRT130-0020), 200 nM CK1α (Life Technologies, PV3850), and 2 mM ATP at 30 °C for 60 min. This phosphorylated β-catenin, unphosphorylated WT β-catenin, or S33E/S37A β-catenin were each diluted into lysate to 100 nM, at the indicated compound concentrations, at a final DMSO concentration of 1% DMSO. Thirty-five microliters of these mixtures were incubated over 10 µL of anti-c-myc magnetic beads (Pierce, Catalog #PI88842), with rotation, at room temperature for 2 h. Beads were then pelleted, washed twice with 200 µL cold wash buffer (1×PBS, 2 mM DTT, 0.01% TX-100, 1% DMSO) containing compound at the same incubation concentration. Washed beads were resuspended in 30 µL SDS loading dye and analyzed by western analysis.

Structures are written as SMILES.

T1 sequence (Q9Y297 1-569 isoform Q9Y297-2, stated change not applied): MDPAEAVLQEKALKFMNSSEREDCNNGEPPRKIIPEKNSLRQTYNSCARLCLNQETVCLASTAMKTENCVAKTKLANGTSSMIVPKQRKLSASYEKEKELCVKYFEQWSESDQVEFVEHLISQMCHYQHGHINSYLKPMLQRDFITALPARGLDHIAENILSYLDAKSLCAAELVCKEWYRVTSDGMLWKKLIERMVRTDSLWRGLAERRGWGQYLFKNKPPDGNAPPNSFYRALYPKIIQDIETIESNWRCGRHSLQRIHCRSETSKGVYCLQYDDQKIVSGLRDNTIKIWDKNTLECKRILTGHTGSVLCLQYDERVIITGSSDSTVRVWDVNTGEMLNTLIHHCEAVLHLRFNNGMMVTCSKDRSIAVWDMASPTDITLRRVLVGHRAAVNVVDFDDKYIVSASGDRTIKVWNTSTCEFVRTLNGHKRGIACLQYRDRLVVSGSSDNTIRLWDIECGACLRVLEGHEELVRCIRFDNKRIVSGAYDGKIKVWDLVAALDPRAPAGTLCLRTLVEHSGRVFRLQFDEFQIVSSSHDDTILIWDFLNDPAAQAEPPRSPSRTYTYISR
T1 sequence (P63208 whole entry partner): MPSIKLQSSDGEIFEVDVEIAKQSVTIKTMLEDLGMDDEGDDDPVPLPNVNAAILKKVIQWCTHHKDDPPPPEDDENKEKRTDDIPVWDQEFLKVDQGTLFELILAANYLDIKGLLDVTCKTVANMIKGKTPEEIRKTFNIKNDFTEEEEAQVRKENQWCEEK
T1 sequence (Q13616 whole entry partner): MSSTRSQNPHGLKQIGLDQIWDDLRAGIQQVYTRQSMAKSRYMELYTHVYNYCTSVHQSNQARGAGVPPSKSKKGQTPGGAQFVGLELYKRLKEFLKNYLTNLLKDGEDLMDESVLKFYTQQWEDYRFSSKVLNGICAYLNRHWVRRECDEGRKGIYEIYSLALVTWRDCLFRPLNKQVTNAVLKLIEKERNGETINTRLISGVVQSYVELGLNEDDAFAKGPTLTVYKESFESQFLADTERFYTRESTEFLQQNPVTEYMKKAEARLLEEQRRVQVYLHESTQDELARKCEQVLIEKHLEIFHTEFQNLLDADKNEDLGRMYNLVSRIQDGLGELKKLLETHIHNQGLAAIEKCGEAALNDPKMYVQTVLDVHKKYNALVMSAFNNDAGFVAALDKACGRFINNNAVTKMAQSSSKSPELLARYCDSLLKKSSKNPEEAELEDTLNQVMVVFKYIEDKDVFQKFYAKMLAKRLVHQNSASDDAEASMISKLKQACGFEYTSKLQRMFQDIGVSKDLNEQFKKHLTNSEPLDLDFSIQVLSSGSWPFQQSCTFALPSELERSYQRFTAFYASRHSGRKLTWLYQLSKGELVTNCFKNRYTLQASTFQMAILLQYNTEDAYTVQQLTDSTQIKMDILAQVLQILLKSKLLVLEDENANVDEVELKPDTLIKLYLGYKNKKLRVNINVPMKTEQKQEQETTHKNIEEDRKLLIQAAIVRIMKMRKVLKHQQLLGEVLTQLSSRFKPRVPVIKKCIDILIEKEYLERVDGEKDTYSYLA
T1 sequence (P62877 whole entry partner): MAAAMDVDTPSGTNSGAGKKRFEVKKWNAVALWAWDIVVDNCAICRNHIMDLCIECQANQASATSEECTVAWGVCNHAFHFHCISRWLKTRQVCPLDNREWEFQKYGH
T1 sequence (Q15843 1-76 partner limits assumed): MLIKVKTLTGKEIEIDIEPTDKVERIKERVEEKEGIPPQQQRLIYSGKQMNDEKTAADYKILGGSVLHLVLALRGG
T1 sequence (P35222 whole entry S37A): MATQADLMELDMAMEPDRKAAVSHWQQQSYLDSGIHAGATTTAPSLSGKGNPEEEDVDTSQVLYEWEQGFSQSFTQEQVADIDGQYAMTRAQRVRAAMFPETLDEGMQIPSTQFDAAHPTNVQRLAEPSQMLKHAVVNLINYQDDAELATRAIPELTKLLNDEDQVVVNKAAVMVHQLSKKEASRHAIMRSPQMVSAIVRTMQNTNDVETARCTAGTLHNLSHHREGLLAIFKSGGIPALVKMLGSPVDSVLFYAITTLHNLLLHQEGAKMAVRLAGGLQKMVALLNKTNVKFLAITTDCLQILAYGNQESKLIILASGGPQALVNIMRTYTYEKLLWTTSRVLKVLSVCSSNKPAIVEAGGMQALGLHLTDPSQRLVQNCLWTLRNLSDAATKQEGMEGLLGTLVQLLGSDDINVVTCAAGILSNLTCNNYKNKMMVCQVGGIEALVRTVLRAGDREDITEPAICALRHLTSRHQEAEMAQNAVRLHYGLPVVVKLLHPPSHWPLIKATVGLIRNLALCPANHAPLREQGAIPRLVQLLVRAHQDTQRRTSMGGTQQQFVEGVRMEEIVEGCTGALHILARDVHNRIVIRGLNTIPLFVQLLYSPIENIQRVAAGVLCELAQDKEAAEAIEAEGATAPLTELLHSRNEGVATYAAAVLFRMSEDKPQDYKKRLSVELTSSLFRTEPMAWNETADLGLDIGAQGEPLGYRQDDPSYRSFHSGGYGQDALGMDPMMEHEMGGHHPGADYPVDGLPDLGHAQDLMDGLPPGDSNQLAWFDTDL
T2 sequence (Q9Y297 1-569 isoform Q9Y297-2, stated change not applied): as the sequence (Q9Y297 1-569 isoform Q9Y297-2, stated change not applied) above
T2 sequence (P63208 whole entry partner, the tested form may be a part): as the sequence (P63208 whole entry partner) above
T2 sequence (P35222 17-48 S37A limits assumed): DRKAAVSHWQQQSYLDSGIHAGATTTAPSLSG
T3 sequence (P35222 whole entry S33E/S37A): as the sequence (P35222 whole entry S37A) above, with S33E counted along it
T3 sequence (Q9Y297 whole entry, stated change not applied): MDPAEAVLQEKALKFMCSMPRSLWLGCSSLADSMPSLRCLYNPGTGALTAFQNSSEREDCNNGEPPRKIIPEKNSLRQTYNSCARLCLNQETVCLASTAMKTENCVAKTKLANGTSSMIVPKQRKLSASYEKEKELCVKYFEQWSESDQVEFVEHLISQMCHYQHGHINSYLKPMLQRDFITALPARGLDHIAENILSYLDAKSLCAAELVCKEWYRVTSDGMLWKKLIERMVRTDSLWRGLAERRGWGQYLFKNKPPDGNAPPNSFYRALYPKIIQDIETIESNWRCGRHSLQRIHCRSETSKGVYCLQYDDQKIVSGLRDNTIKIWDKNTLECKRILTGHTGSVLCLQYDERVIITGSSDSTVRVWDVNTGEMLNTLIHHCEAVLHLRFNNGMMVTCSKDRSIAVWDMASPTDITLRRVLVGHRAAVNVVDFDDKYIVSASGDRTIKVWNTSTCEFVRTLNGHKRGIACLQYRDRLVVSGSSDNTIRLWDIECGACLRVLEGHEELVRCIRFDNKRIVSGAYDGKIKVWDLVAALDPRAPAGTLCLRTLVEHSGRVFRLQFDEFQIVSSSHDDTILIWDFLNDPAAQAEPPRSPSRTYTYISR
T3 sequence (P63208 whole entry partner): as the sequence (P63208 whole entry partner) above

With `N#Cc1cccc2c1CN(C(=O)c1c(Sc3c(Cl)cccc3Cl)cc(C(F)(F)F)[nH]c1=O)C2` [NRX-252114], the “ubiquitylation of full-length Ser33/S37A β-catenin, comparison of enhancers” value in assay [1] is reported as “higher degree of ubiquitylation than NRX-103094”. Besides, in assay [1] (40 μM compound), the “level of ubiquitylation of full-length Ser33/S37A β-catenin” value is “approaches that of WT full-length protein”. The “enhancement in PPI binding affinity” value in assay [2] (20 μM NRX-252114) is given as more than 500 fold. The Kd in assay [2] (read-out: binding affinity of non-phosphorylated peptide) turned out to be 180 nM. For the same molecule, the “interaction of S33E/S37A β-catenin with endogenous β-TrCP in cell lysate” value in assay [3] was “dose-dependent interaction”.
